Patent US11878972B2, “Treatment of neurological disorders” (TORQUR AG, priority 2016, dated 2024)
Entries after “also recorded” stand apart in the source; their conditions may differ. Like-named read-outs stand apart in the source and are kept apart here.

Key:
[1] = PK in Sprague Dawley (SD) rats; type: in vivo, rat
Procedure: A single oral administration of cpd. 3, 10 mg/kg was given to female SD rats in a vehicle consisting of DMSO/HPBCD 20% (10/90). Animals were housed in controlled environment and enclosures provided sterile and adequate space with bedding material, food and water, environmental and social enrichment (group housing). Rats were randomized according to their individual body weight, treated and blood, brain and liver were collected and snap frozen at the following time points: 0.5, 2, 4 and 8 hours. Blood (approximately 500-700 μL, collected via cardiac puncture under anesthesia) was immediately transferred into tubes containing lithium-heparin as anticoagulant (Ref: T MLH, Venoject®, Terumo). Tubes were centrifuged at 1,300 g for 10 minutes at +4° C. The resulting plasma was collected and snap frozen in liquid nitrogen and stored at −80° C. until analysis.
Compound concentrations were detected by HPLC-MS/MS. The calibration curves were drawn using standards of known concentrations.

[2] = test system: female NMRI mice, nonepileptic (sham-SE) and epileptic (pilo-SE); test: Maximal electroshock seizure threshold test (MEST); type: in vivo, mouse
Procedure: A total of 166 adult female NMRI mice were used obtained from Charles River (Sulzfeld, Germany) at a weight range of 21-25 g (mice). Animals were kept under the following conditions: Housing: Animals were housed in groups of max. 8 mice under controlled conditions (temperature: 22±1° C.; humidity: 50% 60%/), under a 12-h light-dark cycle (lights on at 6:00 a.m.). Feeding: Standard laboratory chow (Altromin 1324 standard diet, Altromin Spezialfutter GmbH, Lage, Germany) was provided ad libitum. Drinking water: Tap water was provided ad libitum.
The MEST determines a population seizure threshold in groups of ˜20 animals and not the threshold for an individual animal. In the present study, the MEST was determined by a staircase procedure as previously described. A stimulator (BMT Medizintechnik, Berlin, Germany) that delivered a constant current (adjustable from 1-200 mA regardless of the impedance of the animal) with sinusoidal pulses (50/sec) for 0.2 sec was used.
Current administration was performed via bilateral transcorneal stimulation (using copper electrodes). Before transcorneal stimulation, a drop of tetracaine solution (2%) was administered to the eyes of the mouse for local anesthesia. Two minutes later, the mouse was restrained by hand to press the copper electrodes on both corneas while the stimulus was applied by stepping on a foot pedal switch connected with the stimulator. Electrodes were covered with soft leather and soaked with saline before each current application. […] The first stimulation was started with a current near to the control threshold.
3 (HCl): 40/100 mg in 10 ml (Suspension; 5% PEG 400 and 2% Tween 80, HPBCD (10%6)) • Cpd. 8 (HCl): 12.5/25 mg in 10 ml (5% PEG 400 and 2% Tween 80, HPBCD (10%))
Statistical analysis were calculated using Student's t-test. All tests were used two-sided; a P<0.05 was considered significant.
We performed no special tests for the determination of adverse effects. Mice were observed about 30 min after injection in their home cages for obvious sedation or reduction of wellbeing. Five minutes before electrical stimulation mice were again observed in their home cages and two minutes before stimulation during handling procedure for treatment with local anaesthesia. Every obvious variation from normal behavior was noted. Only phenobarbital induced noticeable sedation which lasted for more than 60 min. All other test drugs (including vehicle solutions) were tolerated without any obvious adverse effects.

[3] = test system: STHdh^Q7/Q7 and STHdh^Q111/Q111 cells; test: PrestoBlue assay (cell viability/metabolic activity); type: cell-based, mouse; conditions: for metabolic activity (PrestoBlue) at 72 hours: 1230 nM, STHdh^Q111/Q111; for mitochondrial activity: at lower concentration
Procedure: Cell viability/metabolic activity was detected using the PrestoBlue viability reagent (Invitrogen, USA) according to the manufacturer's instructions. […] 3 (130 nM, 1230 nM), Cpd. […] Non-toxic concentrations determined were transferred to primary neurons used later on in this study. […] At lower concentration of Cpd. 3 and Cpd. […] 8 in STHdh^Q111/Q111. […] Wild type cells are less sensitive to mTOR inhibition and 2.

[4] = test system: mTOR signaling (S6rP and 4E-BP phosphorylation) in STHdh^Q7/Q7 and STHdh^Q111/Q111 cells; test: mTOR signaling in STHdh cells (western blot); type: cell-based, mouse; conditions: 4 hours
Procedure: 8 inhibit mTOR signaling and induce autophagy in neuronal cell models of HD, treatment of STHdh^Q111/Q111 and STHdh^Q7/Q7 cells was employed. […] Cells were seeded in 10 cm dishes. When cells were about 80% confluent, cells were differentiated and treated with compounds at the same time. […] At the end of incubation time cells were washed with cold PBS buffer and lysed with 200 μl of RIPA buffer supplemented with 4% Complete protease inhibitor (Roche, Switzerland) and 10% PhosStop (Roche, Switzerland). After 30 min of incubation on ice, lysates were vortexed, centrifuged (20 min, 4° C., 16000 rpm) and supernatants were collected. […] 30 μg of protein per sample was analyzed by western blot as described above using the following primary antibodies:

[5] = test system: 51Q-HTT-Exon1-eGFP transfected HEK cells; test: Immune cytochemistry, count of mutHTT aggregates; type: cell-based, human; conditions: Cpd. 8 130 nM, Cpd. 3 400 nM
Procedure: HEK cells were transiently transfected with pcDNA3.1/V5-His vector from Clontech (Mountain View, USA) containing the expression sequence for Exon1 of HTT with a 19Q (no aggregation) or 51Q extension and enhanced green fluorescence protein (eGFP) tag using Attractene Transfection Reagent (Qiagen, Netherlands). 1×10^6 cells were seeded in a 6 well plate. On the next day 2 μg DNA were mixed with 95.5 μl transfection media and 4.5 μl transfection reagent. After an incubation time of 15 min the mixture was added to the cells. After 72 hours cells were harvested or fixed for analysis.
HEK cells were seeded in poly-L-lysine (Sigma-Aldrich, USA) coated coverslips in 24 well plates at 10^4 cells per well and transiently transfected with 19Q- or 51Q-HTT-Exon1-eGFP. Cells were treated with Compounds as described under A for 8 or 24 hours. This incubation ended 72 hours after transfection. Cells were fixed with 4% (para-formaldehyde) PFA. Coverslips were fixed glass slides using mounting media that contained 4′,6-Diamidin-2-phenylindol (DAPI) (FIG. 7C). Nuclei and aggregates containing HTT-Exon1-eGFP were counted manually. 10 000 cells were counted per sample (FIG. 7D).

[6] = test system: STHdh^Q7/Q7 and STHdh^Q111/Q111 cells; test: LDH assay (cytotoxicity); conditions: for LDH activity compared to control: at higher concentrations; for LDH production: time points between 24 h and 48 h
Procedure: Cytotoxicity of test compounds was measured using the lactate dehydrogenase (LDH) assay from Roche, Switzerland according to the manufacturer's instructions.
STHdh^Q111/Q111 and STHdh^Q7/Q7 (Coriell Institute for Medical Research, USA) were cultured in DMEM (Invitrogen, USA) supplemented with FBS (Invitrogen, USA) 10%, Geniticine (G418, Biochrom, Germany)) 1% und antibiotic antimycotic (Invitrogen, USA) 1% in a humidified incubator at 37° C. and 5% CO2. […] 10^4 STHdh^Q7/Q7 and STHdh^Q111/Q111 cells per well were seeded in a 96 well plate incubated with Cpd.

Tsc1GFAP knockout mice = test: Electrographic seizures in Tsc1 GFAP conditional knockout mice
Procedure: Tsc1 mice belonging to either sex were acclimated to the environment, examined, handled, and weighed prior to initiation of the study to assure adequate health and suitability and to minimize non-specific stress associated with human handling. During the course of the study, 12/12 light/dark cycles were maintained. The room temperature was maintained between 20 and 23° C. with a relative humidity maintained around 50%. Food and water were provided ad libitum for the duration of the study. Each mouse was randomly assigned to designated treatment groups. The dosing was performed during the animals' light cycle phase.
Aseptic technique was used throughout the surgical procedures described below. […] Adequate plane of anesthesia was insured by the lack of a withdrawal response to toe pinch and a visible change in the breathing rate. The mouse head was immobilized in a stereotaxic frame with a nose piece that supplied the anesthetic continuously. Ophthalmic ointment was applied to the eyes to prevent drying of the cornea. […]
EEG was recorded using 10× or 100× gain pre-amplifiers. […]
Simultaneously, videographic recording was made through this period to provide a data stream for behavioral evaluation of the mice as needed. After the recording period was completed, individual EEG traces were evaluated for aberrant EEG activity. […]

[7] = test system: pS6 S235/S236 in A2058 cells; test: In-cell Western blot, pS6 S235/S236; type: cell-based; conditions: Homo sapiens, A2058, 1 h, treated for 1 hour, normalized to α-tubulin
Procedure: Cells are fixed with 4% paraformaldehyde for 30 minutes at room temperature, washed 2 times with 1% BSA in PBS, permeabilized with 0.1% Triton X-100 in PBS/1% BSA for 30 minutes at room temperature and blocked with 5% goat serum in PBS/1% BSA/0.1% Triton X-100 for 30 minutes at room temperature. […] Cells are washed 3 times 5 minutes with PBS/1% BSA/0.1% triton and plate scanned with the Odyssey Infrared Scanning system using both 700 and 800 nm channels. […] To correct for background staining in the data analysis wells are treated only with secondary antibodies.
For data analysis the mean background signal from channel 700 nm and 800 nm are subtracted from each signal in channel 700 nm and 800 nm, respectively.
IC50 values of each compound are determined by plotting the normalized pPBK S473 and pS6 S235/S236 signals, respectively, versus the compound concentrations (in logarithmic scale) and then by fitting a sigmoidal dose-response curve with variable slope to the data using GraphPad™ Prism.

[8] = female, Sprague-Dawley, plasma, rat, po, 10 mg/kg, single
[9] = 40 mg/kg Cpd. 3 p.o., pretreatment 1 h
[10] = 40 mg/kg Cpd. 3 p.o., pretreatment 3 h
[11] = 100 mg/kg Cpd. 3 p.o., pretreatment 3 h
[12] = 12.5 mg/kg Cpd. 8 p.o., pretreatment 3 h
[13] = 25 mg/kg Cpd. 8 p.o., pretreatment 1 h
[14] = 25 mg/kg Cpd. 8 p.o., pretreatment 3 h
[15] = 25 mg/kg Cpd. 8 p.o., pretreatment 24 h

For `Nc1cc(C(F)F)c(-c2nc(N3C4CCC3COC4)nc(N3C4CCC3COC4)n2)cn1` [Compound 3, 5-(4-(3-oxa-8-azabicyclo[3.2.1]octan-8-yl)-6-(3-oxa-8-azabicyclo[3.2.1]octan-8-yl)-1,3,5-triazin-2-yl)-4-(difluoromethyl)pyridin-2-amine], the oral bioavailability ([1]; SD rats, single oral 10 mg/kg) was “good oral bioavailability”, the “penetration into the brain” value ([1]; SD rats, single oral 10 mg/kg) was “excellent penetration into the brain” and the Tmax ([1]; female, Sprague-Dawley, brain, rat, po, 10 mg/kg, single, read-out: Brain Tmax) was 30 min. For the same compound, the AUC [1, 8] was 0.4 µg·h/mL, the Cmax [1, 8] was 1.4 µg/mL and the Tmax ([1]; female, Sprague-Dawley, plasma, rat, po, 10 mg/kg, single, read-out: Plasma Tmax) was 30 min. The “Brain AUC” value ([1]; rat, po, 10 mg/kg, single) was 2.5 µg·h/mL, the “Brain Cmax” value ([1]; rat, po, 10 mg/kg, single) was 1.3 µg/g and the “CC50 Pilo-SE (epileptic)” value [2, 9] was 17.99 ± 1.39 mA. For the same compound, the “CC50 Sham-SE (nonepileptic)” value [2, 9] was 15.14 ± 1.06 mA, the “Threshold difference between nonepileptic and epileptic” value [2, 9] was 19% and the “CC50 Pilo-SE (epileptic)” value [2, 10] was 18.20 ± 1.35 mA. The “CC50 Sham-SE (nonepileptic)” value [2, 10] was 17.49 ± 1.20 mA, the “Threshold difference between nonepileptic and epileptic” value [2, 10] was 4% and the “Threshold difference between vehicle and drug threshold, nonepileptic” value [2, 10] was 6%. The “CC50 Pilo-SE (epileptic)” value [2, 11] was 20.85 ± 1.38 mA, the “CC50 Sham-SE (nonepileptic)” value [2, 11] was 16.72 ± 1.72 mA and the “Threshold difference between nonepileptic and epileptic” value [2, 11] was 25%. The “Threshold difference between vehicle and drug threshold, epileptic” value [2, 11] was 9%, the “Threshold difference between vehicle and drug threshold, nonepileptic” value [2, 11] was 2% and the “anticonvulsant effect (overall)” value ([2]; parameters tested in this study) was “slight but inconsistent anticonvulsant effect”. For the same compound, the “metabolic activity (PrestoBlue) at 72 hours” value [3] was “slight inhibition; also recorded: decreased metabolic activity”, the mitochondrial activity [3] was “slight increase in mitochondrial activity” and the “mTOR signaling (S6rP phosphorylation and 4E-BP phosphorylation)” value ([4]; Cpd. 3 200, 400, 1230 nM, Cpd. 8 130, 1230 nM, INK128 100 nM, rapamycin 400 nM) was “reduced S6rP phosphorylation and 4E-BP phosphorylation”. The “reduction of number of mutHTT aggregates” value ([5]; 8 hours of treatment) was 66%, the “reduction of number of mutHTT aggregates” value ([5]; 24 hours of treatment) was 73% and the “LDH activity compared to control” value [6] was “decreased compared to control”. For the same compound, the LDH production [6] was “reduced LDH production”, the Body weight (Tsc1GFAP knockout mice; TSC1 GFAP mice, during treatment) was “higher towards the end of the study” and the “effect on spontaneous electrographic seizures” value (Tsc1GFAP knockout mice; Tsc1 GFAP mice, chronic treatment) was “strongly reduce spontaneous seizures”.
In the case of `C[C@H]1COCCN1c1nc(-c2cnc(N)cc2C(F)F)nc(N2CCOCC2)n1` [Compound 8, (S)-4-(difluoromethyl)-5-(4-(3-methylmorpholino)-6-morpholino-1,3,5-triazin-2-yl)pyridin-2-amine], the IC50 [7] is reported as 0.068 µM, the “Threshold difference between nonepileptic and epileptic” value [2, 12] is reported as −1% and the “Threshold difference between vehicle and drug threshold, epileptic” value [2, 12] is reported as −1%. For the same compound, the “Threshold difference between vehicle and drug threshold, nonepileptic” value [2, 12] was 8%, the “Threshold difference between nonepileptic and epileptic” value [2, 13] was −14% and the “Threshold difference between vehicle and drug threshold, epileptic” value [2, 13] was −9%. The “Threshold difference between nonepileptic and epileptic” value [2, 14] was −22%, the “Threshold difference between vehicle and drug threshold, epileptic” value [2, 14] was 6% and the “Threshold difference between vehicle and drug threshold, nonepileptic” value [2, 14] was 30%. For the same compound, the “Threshold difference between nonepileptic and epileptic” value [2, 15] was 5%, the “Threshold difference between vehicle and drug threshold, epileptic” value [2, 15] was −2% and the “decrease of the CC50” value ([2]; Cpd. 8, epileptic mice, pretreatment time reduced to 1 h) was 9%. The “metabolic activity (PrestoBlue) at 72 hours” value [3] was “not significantly”, the mitochondrial activity [3] was “slight increase in mitochondrial activity” and the “low concentration at which an effect on mTOR signaling could already be observed” value ([4]; STHdh^Q7/Q7 cells) was 130 nM. For the same compound, the “reduction of number of mutHTT aggregates” value ([5]; 8 hours of treatment) was 55%, the “reduction of number of mutHTT aggregates” value ([5]; 24 hours of treatment) was 77% and the “LDH activity compared to control” value [6] was “decreased compared to control”. The LDH production [6] was “reduced LDH production”.
